Literature values, collected in US5597804A, “N-sulfonylarginine keto-amide compounds” (Corvas International, Inc., priority 1993, dated 1997).

Legend:
Conditions in all cases: reported by Ocain et al.; read-out: inhibitor constant
arginyl aminopeptidase = biological target: arginyl aminopeptidase
[1] = biological target: T1, microsomal aminopeptidase (Sus scrofa, UniProt P15145)
T1 sequence (P15145 1-963): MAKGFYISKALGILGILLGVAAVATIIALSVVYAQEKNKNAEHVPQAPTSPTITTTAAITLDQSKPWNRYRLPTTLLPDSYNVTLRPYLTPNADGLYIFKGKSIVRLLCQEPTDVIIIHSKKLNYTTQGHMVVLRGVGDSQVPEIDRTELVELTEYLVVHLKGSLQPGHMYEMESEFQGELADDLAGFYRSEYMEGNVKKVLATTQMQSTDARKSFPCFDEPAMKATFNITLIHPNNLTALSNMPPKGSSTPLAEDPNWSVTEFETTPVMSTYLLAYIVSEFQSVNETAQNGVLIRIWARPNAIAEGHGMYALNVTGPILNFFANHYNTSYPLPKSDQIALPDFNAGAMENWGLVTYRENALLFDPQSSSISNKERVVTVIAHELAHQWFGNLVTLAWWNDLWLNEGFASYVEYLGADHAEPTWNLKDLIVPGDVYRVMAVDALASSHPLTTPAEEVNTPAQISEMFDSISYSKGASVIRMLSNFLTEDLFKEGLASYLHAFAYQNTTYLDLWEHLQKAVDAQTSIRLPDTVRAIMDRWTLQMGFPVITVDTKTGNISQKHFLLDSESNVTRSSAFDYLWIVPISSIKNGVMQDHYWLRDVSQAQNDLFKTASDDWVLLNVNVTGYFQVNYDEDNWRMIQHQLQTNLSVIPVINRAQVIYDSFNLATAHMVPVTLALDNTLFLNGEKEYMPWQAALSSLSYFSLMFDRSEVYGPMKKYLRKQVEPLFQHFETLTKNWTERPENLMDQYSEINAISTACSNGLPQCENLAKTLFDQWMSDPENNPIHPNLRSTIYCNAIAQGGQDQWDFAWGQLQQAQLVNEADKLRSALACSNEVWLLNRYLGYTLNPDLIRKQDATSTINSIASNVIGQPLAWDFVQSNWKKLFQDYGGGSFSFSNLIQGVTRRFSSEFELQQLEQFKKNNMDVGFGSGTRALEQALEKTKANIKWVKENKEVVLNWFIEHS

cytosol aminopeptidase = biological target: cytosol aminopeptidase

- Ki (arginyl aminopeptidase): 1.5 mM
- Ki [1]: 2.5 mM
- Ki (cytosol aminopeptidase): 1 mM
SMILES: NC(=O)C(=O)C(N)Cc1ccccc1 (stereo not drawn) [3-Amino-2-oxo-4-phenylbutanoic acid amide]
